Test results reported in ChEMBL document CHEMBL1201862, “PubChem BioAssay data set” (2004).
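Tested at 5 concentrations; 48 h exposure; 96-well plates; endpoints linearly interpolated, else capped at highest concentration. GI50 marks 50% less growth.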 The source made the active and inactive calls. No stated cut-off is given here; in the data, active = GI50 up to about 1.1 µM and inactive = higher.

Key:
Assay in all cases: NCI anticancer screen, dose series, 48 h
A549 = test system: A549
DMS-273 = test system: DMS-273
DU-145 = test system: DU-145
HCT-15 = test system: HCT-15
HL-60 = test system: HL-60
HOP-18 = test system: HOP-18
K562 = test system: K562
M19-MEL = test system: M19-MEL
MDA-MB-231 = test system: MDA-MB-231
MOLT-4 = test system: MOLT-4
NCI-H226 = test system: NCI-H226
NCI/ADR-RES = test system: NCI/ADR-RES
OVCAR-4 = test system: OVCAR-4
PC-3 = test system: PC-3
SF-539 = test system: SF-539
SNB-78 = test system: SNB-78
SR = test system: SR
UACC-62 = test system: UACC-62
XF498 = test system: XF498
DMS-114 = test system: DMS-114

Row | SMILES | GI50 (A549) | GI50 (DMS-273) | GI50 (DU-145) | GI50 (HCT-15) [µM] | GI50 (HL-60) | GI50 (HOP-18) | GI50 (K562) | GI50 (M19-MEL) | GI50 (MDA-MB-231) | GI50 (MOLT-4) | GI50 (NCI-H226) | GI50 (NCI/ADR-RES) | GI50 (OVCAR-4) | GI50 (PC-3) | GI50 (SF-539) | GI50 (SNB-78) | GI50 (SR) | GI50 (UACC-62) | GI50 (XF498) | GI50 (DMS-114)
1 | CC1C(=O)C(C)C(c2ccccc2)N(N=O)C1c1ccccc1 (configuration not stated) | 207 µM (inactive) | > 798 µM (inactive) | 173 µM (inactive) | > 100 | > 724 µM (inactive) | > 100 µM (inactive) | > 883 µM (inactive) | > 100 µM (inactive) | 85.3 µM (inactive) | > 695 µM (inactive) | > 69.5 µM (inactive) | 179 µM (inactive) | > 65.9 µM (inactive) | 152 µM (inactive) | 86.5 µM (inactive) | > 47 µM (inactive) | > 439 µM (inactive) | > 475 µM (inactive) | 19.4 µM (inactive) | 
2 | COC1(OC)c2ccccc2C2(O)c3ccccc3C(=O)C12 (configuration not stated) |  | 25.2 µM (inactive) |  | 25.3 | 13.5 µM (inactive) | 52 µM (inactive) | 12.6 µM (inactive) | 34.7 µM (inactive) |  | 10.9 µM (inactive) | 27 µM (inactive) |  |  |  | 61 µM (inactive) | 64.4 µM (inactive) | 22.9 µM (inactive) | 13.6 µM (inactive) | 17.8 µM (inactive) | 35.6 µM (inactive)
3 | CCN(C(C)=N)c1ccccc1 | > 100 µM (inactive) |  |  | > 100 | 32.8 µM (inactive) | > 100 µM (inactive) | 43.6 µM (inactive) | 95.5 µM (inactive) |  | 72.6 µM (inactive) | 56.8 µM (inactive) |  | 66.8 µM (inactive) |  | > 100 µM (inactive) | > 100 µM (inactive) |  | > 100 µM (inactive) | > 100 µM (inactive) | 36.5 µM (inactive)
4 | CC(NC(=O)C(=O)N/N=C1\C[C@@H](c2ccccc2)Nc2ccccc21)c1ccccc1 (some centres not stated) | > 100 µM (inactive) | 7.55 µM (inactive) |  |  | 8.57 µM (inactive) | < 0.01 µM (active) |  | > 100 µM (inactive) |  |  | 10.4 µM (inactive) |  | 29.3 µM (inactive) |  | > 100 µM (inactive) | > 100 µM (inactive) |  |  | 18.3 µM (inactive) | 97.1 µM (inactive)
5 | NCc1c(C(N)=O)ncn1Cc1ccccc1 | > 100 µM (inactive) | > 100 µM (inactive) |  | > 100 | > 100 µM (inactive) | > 100 µM (inactive) | > 100 µM (inactive) | > 100 µM (inactive) |  | > 100 µM (inactive) |  |  | > 100 µM (inactive) |  | > 100 µM (inactive) | > 100 µM (inactive) |  | > 100 µM (inactive) | > 100 µM (inactive) | > 100 µM (inactive)
6 | CC(C)(C)c1cc(O)c2c(c1O)C(=O)CCC2 | 35.9 µM (inactive) | 34.8 µM (inactive) |  | 40.8 | 20.2 µM (inactive) | 60.5 µM (inactive) | 30.3 µM (inactive) | 30.5 µM (inactive) |  | 23.9 µM (inactive) |  |  | 30.2 µM (inactive) |  | 42.3 µM (inactive) | 32.7 µM (inactive) |  | 26 µM (inactive) | 31.1 µM (inactive) | 20.3 µM (inactive)
7 | O=C(NN1C(=O)CS(=O)(=O)C1c1cccc(F)c1)c1ccncc1 (configuration not stated) | > 100 µM (inactive) | > 100 µM (inactive) |  | > 100 | > 100 µM (inactive) | < 0.01 µM (active) |  |  |  | > 100 µM (inactive) | > 100 µM (inactive) |  | > 100 µM (inactive) |  |  | > 10 µM (inactive) | > 100 µM (inactive) |  | 82.6 µM (inactive) | > 100 µM (inactive)
8 | Cc1ccc(Nc2nc(C)c(C(/C=C/c3ccc4c(c3)OCO4)=N/Nc3ccc([N+](=O)[O-])cc3[N+](=O)[O-])s2)c([N+](=O)[O-])c1 | 45.8 µM (inactive) | 25.9 µM (inactive) |  | 25.8 | 21.7 µM (inactive) | 7.69 µM (inactive) | 14.3 µM (inactive) | 59.7 µM (inactive) |  | 21.7 µM (inactive) | 25 µM (inactive) |  | 56.6 µM (inactive) |  | 36.3 µM (inactive) | 50.7 µM (inactive) | 24.4 µM (inactive) | 3.59 µM (inactive) | 22.1 µM (inactive) | 13.3 µM (inactive)
9 | CCCCCCCCCCCCC/C=C1\C[C@H](O)COC1=O | 19.5 µM (inactive) | 14.4 µM (inactive) |  | 16.5 | 19.8 µM (inactive) | 17.4 µM (inactive) | 15.9 µM (inactive) | 18.4 µM (inactive) |  |  | 16.3 µM (inactive) |  | 16.9 µM (inactive) |  | 19.8 µM (inactive) | 18.4 µM (inactive) | 18.6 µM (inactive) | 13.7 µM (inactive) | 16.3 µM (inactive) | 
10 | N#CC(/C(CCCC(=O)Nc1cccc([N+](=O)[O-])c1)=N\NC(=O)c1c(O)ccc2ccccc12)c1nc2ccccc2s1 (configuration not stated) | 10.8 µM (inactive) | 8.63 µM (inactive) |  |  | 3.16 µM (inactive) | 23.1 µM (inactive) | 7.89 µM (inactive) | 16.4 µM (inactive) |  | 11.7 µM (inactive) | 21.9 µM (inactive) |  | 24.3 µM (inactive) |  | 15.3 µM (inactive) | 37.4 µM (inactive) | 17.5 µM (inactive) |  | 21.8 µM (inactive) | 12.6 µM (inactive)
11 | COc1cc2c(cc1O)C(C)Cc1cc3c(cc1N(C)CC2)OCO3 (configuration not stated) | 3.94 µM (inactive) | 2.87 µM (inactive) |  | 3.94 | 4.61 µM (inactive) | 10.5 µM (inactive) | 2.8 µM (inactive) | 5.81 µM (inactive) |  | 4.13 µM (inactive) | 6.65 µM (inactive) |  | 15.7 µM (inactive) |  | 2.72 µM (inactive) | 5.12 µM (inactive) | 4.45 µM (inactive) | 3.5 µM (inactive) | 7.19 µM (inactive) | 3.54 µM (inactive)
12 | CCC(=O)OC[n+]1ccc2c(C)c3[nH]c4ccc(OC)cc4c3c(C)c2c1 | 0.135 µM (active) |  |  |  | 1.66 µM (inactive) | < 0.01 µM (active) | 0.132 µM (active) | 0.266 µM (active) |  | 0.0142 µM (active) | 0.348 µM (active) |  | 0.0865 µM (active) |  | 0.243 µM (active) | 0.693 µM (active) | 0.0134 µM (active) |  | 1.22 µM (inactive) | 0.104 µM (active)
13 | COc1ccc(C(=O)OC2C=COC(C)C2OC(=O)c2ccc(OC)cc2)cc1 (configuration not stated) | 48.1 µM (inactive) | 23.3 µM (inactive) |  | 14.9 | 10.6 µM (inactive) | 27.2 µM (inactive) | 17 µM (inactive) | 30.7 µM (inactive) |  | 16.3 µM (inactive) | 38.8 µM (inactive) |  | 24.9 µM (inactive) |  | 18 µM (inactive) | 22.5 µM (inactive) | 16.1 µM (inactive) | 18.4 µM (inactive) | > 45 µM (inactive) | 17.5 µM (inactive)
14 | COc1ccc(/C=C/C(=O)C(C)(C)CN2CCCCC2)cc1 | 26.8 µM (inactive) | 18.2 µM (inactive) |  | 16.3 | 18.6 µM (inactive) | 16.9 µM (inactive) | 24.2 µM (inactive) | 16.4 µM (inactive) |  | 21.8 µM (inactive) | 20.9 µM (inactive) |  | 7.36 µM (inactive) |  | 19.8 µM (inactive) | 17.1 µM (inactive) |  | 24.7 µM (inactive) | 16.5 µM (inactive) | 15 µM (inactive)
15 | [O-]/[N+](=C\c1ccccc1)[C@H](COCc1ccccc1)c1ccccc1 | 51.6 µM (inactive) | 93.8 µM (inactive) |  |  | 25.2 µM (inactive) | 20.3 µM (inactive) | 48.9 µM (inactive) | > 100 µM (inactive) |  | 36.5 µM (inactive) |  |  |  |  | > 100 µM (inactive) | 66.5 µM (inactive) |  |  | 27.8 µM (inactive) | 54.1 µM (inactive)
16 | CC(=O)N(C)c1ccc2c(ccc[n+]2[O-])c1[N+](=O)[O-] | > 100 µM (inactive) | > 100 µM (inactive) |  | > 100 | > 100 µM (inactive) | > 100 µM (inactive) | > 100 µM (inactive) | > 100 µM (inactive) |  | > 100 µM (inactive) | > 100 µM (inactive) |  | > 100 µM (inactive) |  | > 100 µM (inactive) | > 100 µM (inactive) |  | > 100 µM (inactive) | > 100 µM (inactive) | > 100 µM (inactive)
17 | COC(=O)C1N=CSCC1(C)O (configuration not stated) | > 100 µM (inactive) |  |  | > 100 | > 100 µM (inactive) | > 100 µM (inactive) | > 100 µM (inactive) | > 100 µM (inactive) |  | > 100 µM (inactive) | > 100 µM (inactive) |  | > 100 µM (inactive) |  | > 100 µM (inactive) | > 100 µM (inactive) |  | > 100 µM (inactive) | > 100 µM (inactive) | > 100 µM (inactive)
18 | COC(=O)[C@@]1(O)CC(C)C=C1C=O (some centres not stated) | 24.6 µM (inactive) | 19.2 µM (inactive) |  | 17.8 | 22.1 µM (inactive) | > 100 µM (inactive) | 55 µM (inactive) | 80.7 µM (inactive) |  | 60.8 µM (inactive) | > 100 µM (inactive) |  | > 100 µM (inactive) |  | > 100 µM (inactive) | 20.2 µM (inactive) | 55.3 µM (inactive) | 73.6 µM (inactive) | > 100 µM (inactive) | 30.2 µM (inactive)
19 | Cn1nnc2c(C(N)=O)ncn2c1=O [TEMOZOLOMIDE] | > 100 µM (inactive) |  | > 100 µM (inactive) | > 100 | 85.5 µM (inactive) | > 100 µM (inactive) | 75.9 µM (inactive) | > 100 µM (inactive) | > 100 µM (inactive) | 83.6 µM (inactive) | > 100 µM (inactive) | > 100 µM (inactive) | > 100 µM (inactive) | > 100 µM (inactive) | > 100 µM (inactive) | > 100 µM (inactive) | > 100 µM (inactive) | > 100 µM (inactive) | > 100 µM (inactive) | > 100 µM (inactive)
